Assay [1] concerns Pre-adipocyte stem cells, bone marrow mesenchymal stem cells and fibroblasts. The experiment in a line: Assay 2 to measure adipogenesis (dexamethasone/insulin/indomethacin induction, Oil Red O or BODIPY staining). In kind it is cell-based. The settings on record: for adipogenic effect compared to KSEVSK 6-mer: assay 2 (FIG. 12); for Fold adipogenic induction vs. negative control / Specific activity (activity/1000 daltons): Assay 2. As for the experimental part:
The dexamethasone, insulin, and Oil Red 0 solutions were the same as described above for assay 1. Indomethacin Solution contained 10 mM indomethacin in methanol. The BODIPY 493/503 dye was used at a concentration of 4 μM.
Adipogenesis Maintenance Media was prepared as described above.
Adipogenesis Induction Media: To prepare 501 mL of Adipogenesis Induction Media, 50 μL of the 10 mM stock solution of dexamethasone, 500 μL of the 10 mg/ml stock solution of insulin, 5 ml of a 10 mM stock solution of indomethacin, and 5 mL of a 100× stock solution of penicillin and streptomycin were added to 490 mL of mesenchymal stem cell expansion media.
(§1) Pre-adipocyte stem cells, bone marrow mesenchymal stem cells and fibroblasts such as dermal reticular and papillary fibroblasts were propagated using standard tissue culture methods. Cells were trypsinized to remove cells from the substratum, the trypsin was neutralized, and cells were counted using a hemocytometer. Cells were resuspended at 60,000 cells/ml in low glucose DMEM containing 10% calf serum. 1 mL of cell suspension per well was plated in a 24-well plate, with several wells left empty for blank well staining.
Cells were incubated overnight and had reached confluency at this point. Approximately 1.8 ml of media was removed from each well and replaced with 2 ml Adipogenesis Induction Media. For negative control wells, expansion medium only was used at this step and for subsequent media changes. For all media changes, media was replaced as gently as possible to avoid disturbing the monolayer.
Cells were incubated for 3 days at 37° C., 5% CO2, media was replaced with fresh Adipogenesis Induction Media, and cells were incubated for an additional three days, at which point adipogenesis could be observed in about 5-10% of cells. Media was removed and replaced with 2 ml of maintenance medium containing either RHAMM antagonist peptides (experimental group) or insulin (concentration as in the induction medium used as positive control). Cells were incubated for 3 days at 37° C., 5% CO2.
Media was removed and BODIPY or Oil Red O staining was performed as described above for assay 1.

Assay [2] concerns Pre-adipocyte stem cells including bone marrow mesenchymal stem cells and fibroblasts. The assay is described as follows: Assay 1 to measure adipogenesis (IBMX/dexamethasone initiation, Oil Red O or BODIPY staining). In kind it is cell-based, rat. The following applies: for adipogenic effect compared to KSEVSK 6-mer: assay 1 (FIG. 11); for Fold adipogenic induction vs. negative control / Specific activity (activity/1000 daltons): Assay 1. How it is done:
Reagents: (1) 3-isobutyl-1-methylxanthine (IBMX) solution: 0.5M in DMSO; (2) Insulin solution: 10 mg/mL recombinant human insulin; (3) Dexamethasone solution in 10 mM in ethanol; (4) Oil Red 0 (0.36% in 60% isopropanol) or BODIPY dye (BODIPY 493/503 (4,4-difluoro-1,3,5,7-tetramethyl-4-bora-3a,4a-diaza-s-indacene-8-propionic acid, succinimidyl ester) from Invitrogen at 4-10 μM).
Adipogenesis Initiation Media: mesenchymal stem cell expansion media/0.5 mM IBMX/1 μM dexamethasone. Mesenchymal stem cell expansion media is commercially available from Millipore. The IBMX Solution was diluted 1:1000 and the Dexamethasone Solution was diluted 1:10,000 in expansion media containing antibiotics and antimycotics. The prepared media was stored at 4° C.
Adipogenesis Progression Media for positive control: mesenchymal stem cell expansion media/10 μg/mL insulin. The Insulin Solution was diluted 1:1000 in the expansion media and stored at 4° C.
Experimental Adipogenesis Progression Media: mesenchymal stem cell expansion media/1-100 μg/mL RHAMM antagonist peptides.
Adipogenesis Maintenance Media: mesenchymal stem cell expansion media containing antibiotics and antimycotics.
Negative Control Media: DMEM/10% normal calf serum.
(§2) Pre-adipocyte stem cells including bone marrow mesenchymal stem cells and fibroblasts including reticular and papillary dermal fibroblasts were propagated using standard tissue culture methods. Cells were trypsinized to remove the cells from the substratum. The trypsin was neutralized and cells were counted using a hemocytometer. Cells were resuspended at 30,000 cells/mL in expansion media. […] of cell suspension was plated per well of 24-well plate, with several wells left empty for blank well staining.
Cells were incubated for 1-2 days until they reached confluency. Approximately 1.8 mL of media was removed from each well and replaced with 2 mL Adipogenesis Initiation Media. For negative control wells, expansion media only was used at this step and for subsequent media changes. For all media changes, media was replaced as gently as possible to avoid disturbing the monolayer.
Cells were incubated for 48 hours at 37° C., 5% CO2. 2 mL media was removed from each well, and replaced with 2 mL either positive control or experimental Adipogenesis Progression Media per well. Cells were again incubated for 48 hours at 37° C., 5% CO2. 2 mL of media was removed from each well and replaced with 2 mL Adipogenesis Maintenance Media per well. In addition, media was added to the empty wells reserved for blank well staining Cells were incubated for at least 48 hours at 37° C., 5% CO2. Media was replaced every 48-72 hours. Accumulation of intracellular lipid droplets continued for at least 5 days.
For quantification of Oil Red 0 staining, media was removed and cells were washed twice with PBS, using care to gently add the PBS. 0.5 mL Oil Red 0 solution was added per well of 24-well plate, including to the wells lacking cells, but containing media. Cells were incubated for 15 minutes at room temperature. The staining solution was then removed and wells were washed three times with 1 mL of phosphate buffered saline (PBS). In some experiments, following removal of the last wash, stained plates were scanned or photographed.
Adipogenesis was quantified using a spectrophotometer or fluorometer. 0.25 mL Dye Extraction Solution (isopropyl alcohol) was added per well, and the plate was set on an orbital shaker or platform rocker for 15-30 minutes. Extracted dye was transferred into a cuvette and absorbance was read in a spectrophotometer at visible range for oil red 0 or transferred to a 96-well plate and quantified in a plate reader.
For quantification of BODIPY dye uptake, media was removed and cells were washed twice with PBS, using care to gently add the PBS. Cells were then fixed in 3% paraformaldehyde, washed in PBS then incubated for 1 hour in the dark with the BODIPY solution, prepared in PBS. […]

Assay [3] concerns bone marrow mesenchymal stem cells. The assay is described as follows: Adipogenesis in culture, assay 1 or 2 not specified. The settings on record: for adipogenic activity (in words): truncation fragments, FIGS. 7-9, 13; for activity compared to KSEVSK hexamer: FIG. 13, doses 1, 5, 25 μg, absorbance at 520 nm. It is filed as cell-based.
Source text: The following assays were used to assess adipogenic activity of the peptides in the experiments described below in Example 2.
as §2, §1

Assay [4] concerns Pre-adipocytes (rat mesenchymal stem cells). The assay is described as follows: Adipogenic potential in 2D rat pre-adipocyte culture. In kind it is cell-based. The settings on record: ranked on a scale of 0-5 with 5 the highest possible score; two-dimensional tissue culture. As for the experimental part:
(§3) Examples of the adipogenic effects of RHAMM antagonists (peptide B (SEQ ID NO: 2), peptide P15-1 (SEQ ID NO. 1), and the antibody to peptide B) are summarized in Table 1. Peptide P15-1, peptide B, and a RHAMM antibody were assayed for their effects on pre-adipocyte stem cells in culture and when injected into the dermis of aged rats. Reagents were ranked on a scale of 0-5 with 5 representing the highest possible score and a completely filled in Harvey ball. “2D” refers to two-dimensional tissue culture.

The subject of the next assay is Rat skin. The experiment in a line: Rat dermal skin model of adipogenesis (injection into the dermis). It is filed as in vivo. The settings on record: for adipogenic potential, In vivo Rat skin: ranked on a scale of 0-5 with 5 the highest possible score, injected into the dermis of aged rats. How it is done: as §3
In FIGS. 5A and 5B, data are shown as a ratio of the area (“surface area”) of fat pads expressed as a ratio of experimental/control values.
The 6-mer (KSEVSK; SEQ ID NO: 3) was tested for adipogenic effect in rat skin in vivo. The results of this testing are shown in the photographs in FIG. 10.

The subject of a further assay is nude guinea pigs. The assay is described as follows: Nude guinea pig model, injection in upper back and ear fat pad, H and E staining. In kind it is in vivo. The settings on record: upper back and ear fat pad after injection; control collagen gel vehicle only. How it is done:
Peptide B (SEQ ID NO: 2) was also tested for its effect in nude guinea pigs since their skin structure resembles human facial skin. In particular, the skin of this animal model is more similar to human skin than is rat skin, in that it is hairless and the keratinocyte layer is thicker than in the rat model. […] Thus, peptide B was effective in promoting adipogenesis in this nude guinea pig model.

The subject of another assay is human Pre-adipocytes. The assay is described as follows: Adipogenic potential in 2D human pre-adipocyte culture. In kind it is cell-based. The settings on record: ranked on a scale of 0-5 with 5 the highest possible score; two-dimensional tissue culture. As for the experimental part:
as §3

Another assay deals with mesenchymal stem cell. The experiment in a line: Adipogenesis using a commercially available mesenchymal stem cell kit. It is filed as cell-based.

This is an account of results in US10766927B2, “Peptides that stimulate subcutaneous adipogenesis” (THE REGENTS OF THE UNIVERSITY OF CALIFORNIA, priority 2012, dated 2020).

For ASEVSK, the “adipogenic effect compared to KSEVSK 6-mer” value in assay [1] and in assay [2] was “reduced adipogenic effects” throughout.

On to KLKDENS, for which, in assay [3], the “adipogenic activity (in words)” value is recorded as “Only the SQLKSEVSK (SEQ ID NO: 44) fragment was found to be adipogenic”.

In the case of KLKDENSQLKSEVSK [peptide B], the “amount at which maximum adipogenic effect was obtained” value in assay [3] (bone marrow mesenchymal stem cells, depending upon the screening assay used (FIGS. 3B, 3C, 4)) lay within 1 to 5 µg. Besides, in assay [1], the “Fold adipogenic induction vs. negative control” value is 3.1 and the “Specific activity (activity/1000 daltons)” value (from here on “Specific activity”) is 1.7 activity/1000 daltons. Also, the “adipogenic potential, 2D rat Pre-adipocytes (rat mesenchymal stem cells)” value in assay [4] was 5. Further, the “fat accumulation in rat dermal skin model” value in the assay on Rat skin (25-50 μg/injection site) was “induced significant fat accumulation”. For the same molecule, the “fat pad surface area, experimental/control: animal group with best effect” value in the assay on Rat skin (FIGS. 5A and 5B) is recorded as “most effective in old females”. Moreover, the “adipogenic potential, In vivo Rat skin” value in the assay with Rat skin is 5. In addition, the subcutaneous fat deposition entry in the assay on nude guinea pigs is “increase in subcutaneous fat deposition”. In addition, in the assay on human Pre-adipocytes, the “adipogenic potential, 2D human Pre-adipocytes” value is reported as 5.

Turning to KSEVS, in assay [3], the “activity compared to KSEVSK hexamer” value is listed as “much less active” and the “adipogenic activity (in words)” value is given as “low level of adipogenic activity”.

Regarding KSEVSA, the “adipogenic effect compared to KSEVSK 6-mer” value in assay [1] and in assay [2] was “reduced adipogenic effects” throughout.

KSEVSK [6mer]: the “adipogenic activity (in words)” value in assay [3] was “also found to be adipogenic”. Further, the “Fold adipogenic induction vs. negative control” value in assay [1] is 4.2; in assay [2], 2.8. Further, the “Specific activity” value in assay [1] is 5.6 activity/1000 daltons; in assay [2], 3.7 activity/1000 daltons. The “adipogenic effect in rat skin in vivo (fat pads)” value with Rat skin (FIG. 10) is “able to induce large fat pads, possibly larger than peptide B”.

With LKSEVSK [7mer], the “adipogenic activity (in words)” value in assay [3] is given as “also found to be adipogenic”. In addition, in assay [1], the “Fold adipogenic induction vs. negative control” value was found to be 3.0 and the “Specific activity” value worked out at 3.4 activity/1000 daltons. In addition, in assay [2], the “Fold adipogenic induction vs. negative control” value is 2 and the “Specific activity” value is reported as 2.3 activity/1000 daltons.

With SEVSK, in assay [3], the “activity compared to KSEVSK hexamer” value was “much less active” and the “adipogenic activity (in words)” value is “low level of adipogenic activity”.

SQLKSEVSK [9mer]: the “adipogenic activity (in words)” value in assay [3] was “found to be adipogenic”. In addition, in assay [1], the “Fold adipogenic induction vs. negative control” value is reported as 3.0 and the “Specific activity” value amounted to 2.6 activity/1000 daltons. In addition, in assay [2], the “Fold adipogenic induction vs. negative control” value worked out at 2.4 and the “Specific activity” value was determined as 2.1 activity/1000 daltons.

For the molecule STMMSRSHK, the “adipogenic activity (in words)” value in assay [3] is reported as “has adipogenic activity”.

Regarding STMMSRSHKTRSHHV [peptide P15-1], the “adipogenic potential, 2D rat Pre-adipocytes (rat mesenchymal stem cells)” value in assay [4] is listed as 2. Moreover, the “adipogenic potential, In vivo Rat skin” value with Rat skin was found to be 2. In the assay with human Pre-adipocytes, the “adipogenic potential, 2D human Pre-adipocytes” value came to 2.

B1: RHAMM carboxy-terminal sequence: RHAMM carboxy-terminal sequence aa681-794 produced as a recombinant protein (protein)
chain: LDAFEAEKQALLNEHGATQEQLNKIRDSYAQLLGHQNLKQKIKHVVKLKDENSQLKSEVSKLRSQLVKRKQNELRLQGELDKALGIRHFDPSKAFCHASKENFTPLKEGNPNCC
In the case of B1, the promotion of adipogenesis entry in the assay on mesenchymal stem cell is on record as “promoted adipogenesis”.
